Experimental findings from patent publication US20050084456A1, “Functionalized particles” (priority 2003, published 2005) are described below.

A short description of this series: Distribution of intravenously administered FITC-labeled NIPA nanoparticles in uveal tissue. Conditions: 12 hours after intravenous administration; FIG. 3.

fluorescein-isothiocyanate [FITC]: the “presence / accumulation in uveal tissue” value was “no accumulation”.
